Reference: the NIST ThermoML archive (doi:10.1021/je050056e)

Conditions: Liquid; for mass density: 101.33 kPa

FC1(F)C(F)(F)C(F)(F)C2(F)C(F)(F)C(F)(F)C(F)(F)C(F)(F)C2(F)C1(F)F (centres undefined) [perfluorodecalin]
Conditions	mass density [kg/m3]	vapor or sublimation pressure [kPa]
288.15 K	1952.8	–
288.25 K	–	0.57
293.15 K	1941.7	–
293.25 K	–	0.73
298.15 K	1930.5	–
298.21 K	–	0.91
303.15 K	1919.2	–
303.29 K	–	1.25
308.23 K	–	1.59
313.15 K	1896.6	–
313.22 K	–	2.05
318.21 K	–	2.66
323.18 K	–	3.45
328.17 K	–	4.41
333.2 K	–	5.47

FC(F)(F)C(F)(F)C(F)(F)C(F)(F)C(F)(F)C(F)(F)C(F)(F)C(F)(F)C(F)(F)F [eicosafluorononane]
Conditions	mass density [kg/m3]	vapor or sublimation pressure [kPa]
288.15 K	1812.2	–
288.18 K	–	0.68
293.15 K	1800.1	–
293.18 K	–	0.94
298.11 K	–	1.29
298.15 K	1787.9	–
303.1 K	–	1.71
303.15 K	1775.7	–
308.19 K	–	2.32
313.15 K	1750.9	–
313.17 K	–	3.06
318.22 K	–	3.99
323.15 K	–	5.14
328.15 K	–	6.59
333.15 K	–	8.42

FC(F)(F)C(F)(F)C(F)(F)C(F)(F)C(F)(F)C(F)(F)F [perfluorohexane]
Conditions	mass density [kg/m3]	vapor or sublimation pressure [kPa]
288.15 K	1705.6	–
288.31 K	–	18.78
293.15 K	1691	–
293.22 K	–	23.58
298.09 K	–	29.28
298.15 K	1676.1	–
302.98 K	–	36.19
303.15 K	1661.1	–
307.97 K	–	44.38
313.15 K	1630.2	–
313.17 K	–	54.56
318.15 K	–	65.86
323.13 K	–	78.91
328.11 K	–	94.08
333.1 K	–	111.39

FC(F)(F)C(F)(F)C(F)(F)C(F)(F)C(F)(F)C(F)(F)C(F)(F)C(F)(F)Br [1-bromoperfluorooctane]
Conditions	mass density [kg/m3]	vapor or sublimation pressure [kPa]
288.15 K	1938.6	–
288.22 K	–	0.38
293.15 K	1926.7	–
293.2 K	–	0.54
298.08 K	–	0.69
298.15 K	1914.8	–
303.15 K	1902.8	–
303.26 K	–	0.98
308.15 K	1890.8	–
308.22 K	–	1.3
313.15 K	1878.6	–
313.18 K	–	1.67
318.09 K	–	2.24
322.92 K	–	2.89
327.88 K	–	3.69
332.78 K	–	4.7

Fc1c(F)c(F)c(C(F)(F)F)c(F)c1F [octafluorotoluene]
Conditions	mass density [kg/m3]	vapor or sublimation pressure [kPa]
288.15 K	1682.8	–
288.23 K	–	2.18
293.15 K	1672.2	–
293.2 K	–	2.95
298.15 K	1661.6	–
298.28 K	–	3.87
303.15 K	1650.9	–
303.18 K	–	5.09
308.15 K	1640.2	6.54
313.15 K	1629.4	8.43
318.15 K	–	10.69
323.15 K	–	13.38
328.45 K	–	16.86
333.93 K	–	21.31

Fc1c(F)c(F)c(F)c(F)c1F [hexafluorobenzene]
Conditions	mass density [kg/m3]	vapor or sublimation pressure [kPa]
288.15 K	1628.9	–
288.23 K	–	6.9
293.15 K	1617.5	–
293.51 K	–	9
297.98 K	–	11.16
298.15 K	1606.2	–
302.96 K	–	14.2
303.15 K	1594.8	–
307.96 K	–	17.93
308.15 K	1583.3	–
312.96 K	–	22.25
313.15 K	1571.8	–
317.96 K	–	27.56
322.96 K	–	33.85
327.95 K	–	41.16
333.01 K	–	49.95

FC(F)C(F)(F)C(F)(F)C(F)(F)C(F)(F)C(F)(F)C(F)(F)C(F)(F)F [1H-perfluorooctane]
Conditions	mass density [kg/m3]	vapor or sublimation pressure [kPa]
288.15 K	1773.6	–
288.35 K	–	1.18
293.15 K	1761.8	–
293.26 K	–	1.6
298.15 K	1749.9	–
298.26 K	–	2.18
303.15 K	1737.9	–
303.19 K	–	2.84
308.15 K	1725.8	3.72
313.13 K	–	4.87
313.15 K	1713.6	–
318.06 K	–	6.22
323.01 K	–	8.07
328 K	–	10.25
332.89 K	–	12.83
